US6900344B2, “Method of preparing alkylated salicylamides via a dicarboxylate intermediate” (Emisphere Technologies, Inc., priority 2000, dated 2005)

Test: solubility in DMAC
Details: in DMAC (dimethylacetamide)

## O=c1[nH]c(=O)c2ccccc2o1 [carsalam, 2H-1,3-benzoxazine-2,4(3H)-dione]
  solubility: about 30%
